Laboratory results published in ChEMBL document CHEMBL3885881, “DrugMatrix”.

Organism: Rattus norvegicus
Assay: DrugMatrix - Regimen: Daily Repeat
Type: toxicity, organism-based, Sprague-Dawley
Parameters: regimen Daily Repeat, gender Male, age 6-8 weeks
Conditions: in vivo, ip, route intraperitoneal, vehicle 100 % SALINE; for ABSOLUTE BASOPHIL / ABSOLUTE EOSINOPHIL / ABSOLUTE LYMPHOCYTE / ABSOLUTE MONOCYTE / ABSOLUTE SEGMENTED NEUTROPHIL / BASOPHIL / EOSINOPHIL / ERYTHROCYTE COUNT / HEMATOCRIT / HEMOGLOBIN / LEUKOCYTE COUNT / LYMPHOCYTE / MEAN CORPUSCULAR HEMOGLOBIN / MEAN CORPUSCULAR HEMOGLOBIN CONCENTRATION / MEAN CORPUSCULAR VOLUME / MONOCYTE / NEUTROPHIL / PLATELET COUNT: tissue Blood; for ALANINE AMINOTRANSFERASE / ALBUMIN / ASPARTATE AMINOTRANSFERASE / BLOOD UREA NITROGEN / CHOLESTEROL / CREATINE PHOSPHOKINASE / CREATININE / GLUCOSE / LACTATE DEHYDROGENASE / LIPASE / POTASSIUM / SODIUM / TOTAL BILIRUBIN / TOTAL PROTEIN / URIC ACID / ALKALINE PHOSPHATASE / CHLORIDE / PHOSPHORUS: tissue Plasma
[1] = 0 mg/kg, 120 h, dose level Control, time 5 day
[2] = 0 mg/kg, […], dose level Control, time 14 day
[3] = 0 mg/kg, […], dose level Control, time 28 day
[4] = 5 mg/kg, 120 h, dose level High, time 5 day
[5] = 5 mg/kg, […], dose level High, time 14 day
[6] = 5 mg/kg, […], dose level High, time 28 day

## CARBOPLATIN
[1]
  ABSOLUTE BASOPHIL: 32 cells/µL
  ABSOLUTE EOSINOPHIL: 110 cells/µL
  ABSOLUTE LYMPHOCYTE: 6630 cells/µL
  ABSOLUTE MONOCYTE: 140 cells/µL
  ABSOLUTE SEGMENTED NEUTROPHIL: 1170 cells/µL
  BASOPHIL: 0.38%
  EOSINOPHIL: 1.28%
  ERYTHROCYTE COUNT: 7.45 x10E6/uL
  HEMATOCRIT: 45.74%
  HEMOGLOBIN: 14.72 G/DL
  LEUKOCYTE COUNT: 8.11 x10E3/uL
  LYMPHOCYTE: 81.3%
  MEAN CORPUSCULAR HEMOGLOBIN: 19.76 pg
  MEAN CORPUSCULAR HEMOGLOBIN CONCENTRATION: 32.16 G/DL
  MEAN CORPUSCULAR VOLUME: 61.38 fL
  MONOCYTE: 1.76%
  NEUTROPHIL: 14.9%
  PLATELET COUNT: 1322.4 x10E3/uL
  ALANINE AMINOTRANSFERASE: 25.8 u/L
  ALBUMIN: 3.64 G/DL
  ASPARTATE AMINOTRANSFERASE: 81.4 u/L
  BLOOD UREA NITROGEN: 14.4 mg/dL
  CHOLESTEROL: 69.2 mg/dL
  CREATINE PHOSPHOKINASE: 303.2 u/L
  CREATININE: 0.56 mg/dL
  GLUCOSE: 125.4 mg/dL
  LACTATE DEHYDROGENASE: 105.4 u/L
  LIPASE: 22.4 u/L
  POTASSIUM: 5.52 MEQ/L
  SODIUM: 147 MEQ/L
  TOTAL BILIRUBIN: 0.2 mg/dL
  TOTAL PROTEIN: 6.1 G/DL
  URIC ACID: 1.06 mg/dL
[2]
  ABSOLUTE BASOPHIL: 130 cells/µL
  ABSOLUTE EOSINOPHIL: 140 cells/µL
  ABSOLUTE LYMPHOCYTE: 13500 cells/µL
  ABSOLUTE MONOCYTE: 400 cells/µL
  ABSOLUTE SEGMENTED NEUTROPHIL: 2330 cells/µL
  BASOPHIL: 0.72%
  EOSINOPHIL: 0.86%
  ERYTHROCYTE COUNT: 7.74 x10E6/uL
  HEMATOCRIT: 45.98%
  LEUKOCYTE COUNT: 16.61 x10E3/uL
  LYMPHOCYTE: 81.34%
  MEAN CORPUSCULAR HEMOGLOBIN: 18 pg
  MEAN CORPUSCULAR HEMOGLOBIN CONCENTRATION: 30.22 G/DL
  MEAN CORPUSCULAR VOLUME: 59.4 fL
  MONOCYTE: 2.46%
  NEUTROPHIL: 14.14%
  PLATELET COUNT: 1445.5 x10E3/uL
  ALANINE AMINOTRANSFERASE: 31.6 u/L
  ALBUMIN: 3.66 G/DL
  ALKALINE PHOSPHATASE: 228.6 u/L
  ASPARTATE AMINOTRANSFERASE: 79.6 u/L
  BLOOD UREA NITROGEN: 11.2 mg/dL
  CHLORIDE: 107 MEQ/L
  CHOLESTEROL: 57 mg/dL
  CREATININE: 0.5 mg/dL
  GLUCOSE: 124.4 mg/dL
  LACTATE DEHYDROGENASE: 106.4 u/L
  LIPASE: 24.4 u/L
  PHOSPHORUS: 10.52 mg/dL
  POTASSIUM: 6.34 MEQ/L
  SODIUM: 149.2 MEQ/L
  TOTAL BILIRUBIN: 0.2 mg/dL
  TOTAL PROTEIN: 6.48 G/DL
  URIC ACID: 0.94 mg/dL
[3]
  ABSOLUTE BASOPHIL: 91 cells/µL
  ABSOLUTE EOSINOPHIL: 110 cells/µL
  ABSOLUTE LYMPHOCYTE: 9910 cells/µL
  ABSOLUTE MONOCYTE: 210 cells/µL
  ABSOLUTE SEGMENTED NEUTROPHIL: 1560 cells/µL
  BASOPHIL: 0.77%
  EOSINOPHIL: 0.92%
  ERYTHROCYTE COUNT: 8.21 x10E6/uL
  HEMATOCRIT: 47.53%
  HEMOGLOBIN: 15.65 G/DL
  LEUKOCYTE COUNT: 11.91 x10E3/uL
  LYMPHOCYTE: 83.34%
  MEAN CORPUSCULAR HEMOGLOBIN: 19.07 pg
  MEAN CORPUSCULAR HEMOGLOBIN CONCENTRATION: 32.93 G/DL
  MEAN CORPUSCULAR VOLUME: 57.9 fL
  MONOCYTE: 1.68%
  NEUTROPHIL: 12.97%
  PLATELET COUNT: 1323.8 x10E3/uL
  ALANINE AMINOTRANSFERASE: 30 u/L
  ALBUMIN: 3.71 G/DL
  ALKALINE PHOSPHATASE: 186.8 u/L
  ASPARTATE AMINOTRANSFERASE: 78.2 u/L
  BLOOD UREA NITROGEN: 14.2 mg/dL
  CHOLESTEROL: 44.9 mg/dL
  CREATINE PHOSPHOKINASE: 334.3 u/L
  CREATININE: 0.6 mg/dL
  GLUCOSE: 147.2 mg/dL
  LACTATE DEHYDROGENASE: 123.1 u/L
  LIPASE: 9.6 u/L
  PHOSPHORUS: 10.01 mg/dL
  POTASSIUM: 6.57 MEQ/L
  SODIUM: 149.5 MEQ/L
  TOTAL BILIRUBIN: 0.21 mg/dL
  TOTAL PROTEIN: 6.66 G/DL
  URIC ACID: 1.26 mg/dL
[4]
  ABSOLUTE BASOPHIL: 26 cells/µL
  ABSOLUTE EOSINOPHIL: 44 cells/µL
  ABSOLUTE LYMPHOCYTE: 5500 cells/µL
  ABSOLUTE MONOCYTE: 120 cells/µL
  ABSOLUTE SEGMENTED NEUTROPHIL: 520 cells/µL
  BASOPHIL: 0.4%
  EOSINOPHIL: 0.72%
  ERYTHROCYTE COUNT: 7.51 x10E6/uL
  HEMATOCRIT: 46.82%
  LEUKOCYTE COUNT: 6.24 x10E3/uL
  LYMPHOCYTE: 88.18%
  MEAN CORPUSCULAR HEMOGLOBIN: 20.08 pg
  MEAN CORPUSCULAR HEMOGLOBIN CONCENTRATION: 32.18 G/DL
  MONOCYTE: 2.02%
  NEUTROPHIL: 8.22%
  PLATELET COUNT: 1572.2 x10E3/uL
  ALANINE AMINOTRANSFERASE: 21.4 u/L
  ALBUMIN: 3.62 G/DL
  ALKALINE PHOSPHATASE: 214.8 u/L
  ASPARTATE AMINOTRANSFERASE: 70.6 u/L
  BLOOD UREA NITROGEN: 14.6 mg/dL
  CHLORIDE: 107.4 MEQ/L
  CHOLESTEROL: 59.4 mg/dL
  CREATINE PHOSPHOKINASE: 192.6 u/L
  CREATININE: 0.54 mg/dL
  GLUCOSE: 139.6 mg/dL
  LACTATE DEHYDROGENASE: 65 u/L
  LIPASE: 27.2 u/L
  PHOSPHORUS: 11.28 mg/dL
  POTASSIUM: 5.36 MEQ/L
  SODIUM: 146.8 MEQ/L
  TOTAL BILIRUBIN: 0.18 mg/dL
  TOTAL PROTEIN: 6.16 G/DL
  URIC ACID: 1.16 mg/dL
[5]
  ABSOLUTE BASOPHIL: 130 cells/µL
  ABSOLUTE EOSINOPHIL: 88 cells/µL
  ABSOLUTE LYMPHOCYTE: 8780 cells/µL
  ABSOLUTE MONOCYTE: 260 cells/µL
  ABSOLUTE SEGMENTED NEUTROPHIL: 1370 cells/µL
  BASOPHIL: 1.28%
  EOSINOPHIL: 0.82%
  ERYTHROCYTE COUNT: 7.59 x10E6/uL
  HEMATOCRIT: 44.92%
  LEUKOCYTE COUNT: 10.68 x10E3/uL
  LYMPHOCYTE: 81.92%
  MEAN CORPUSCULAR HEMOGLOBIN: 19.52 pg
  MEAN CORPUSCULAR HEMOGLOBIN CONCENTRATION: 32.96 G/DL
  MONOCYTE: 2.38%
  NEUTROPHIL: 13.02%
  PLATELET COUNT: 1274 x10E3/uL
  ALANINE AMINOTRANSFERASE: 30.2 u/L
  ALBUMIN: 3.48 G/DL
  ALKALINE PHOSPHATASE: 147.2 u/L
  ASPARTATE AMINOTRANSFERASE: 92.8 u/L
  BLOOD UREA NITROGEN: 12.2 mg/dL
  CHOLESTEROL: 54 mg/dL
  CREATINE PHOSPHOKINASE: 251.2 u/L
  CREATININE: 0.46 mg/dL
  GLUCOSE: 105.2 mg/dL
  LACTATE DEHYDROGENASE: 123.4 u/L
  LIPASE: 31.2 u/L
  PHOSPHORUS: 8.36 mg/dL
  POTASSIUM: 5.68 MEQ/L
  SODIUM: 149.4 MEQ/L
  TOTAL BILIRUBIN: 0.22 mg/dL
  TOTAL PROTEIN: 6.24 G/DL
  URIC ACID: 0.6 mg/dL
[6]
  ABSOLUTE BASOPHIL: 170 cells/µL
  ABSOLUTE EOSINOPHIL: 89 cells/µL
  ABSOLUTE LYMPHOCYTE: 9490 cells/µL
  ABSOLUTE MONOCYTE: 290 cells/µL
  ABSOLUTE SEGMENTED NEUTROPHIL: 1640 cells/µL
  BASOPHIL: 1.3%
  EOSINOPHIL: 0.78%
  ERYTHROCYTE COUNT: 8.56 x10E6/uL
  HEMATOCRIT: 50.05%
  LEUKOCYTE COUNT: 11.75 x10E3/uL
  LYMPHOCYTE: 81.13%
  MEAN CORPUSCULAR HEMOGLOBIN: 19.05 pg
  MEAN CORPUSCULAR HEMOGLOBIN CONCENTRATION: 32.58 G/DL
  MEAN CORPUSCULAR VOLUME: 58.46 fL
  MONOCYTE: 2.43%
  NEUTROPHIL: 13.81%
  PLATELET COUNT: 1331.9 x10E3/uL
  ALANINE AMINOTRANSFERASE: 36.4 u/L
  ALBUMIN: 3.74 G/DL
  ALKALINE PHOSPHATASE: 135 u/L
  ASPARTATE AMINOTRANSFERASE: 95.6 u/L
  BLOOD UREA NITROGEN: 13.2 mg/dL
  CHLORIDE: 106.6 MEQ/L
  CHOLESTEROL: 55.8 mg/dL
  CREATINE PHOSPHOKINASE: 186.2 u/L
  CREATININE: 0.51 mg/dL
  GLUCOSE: 115.1 mg/dL
  LACTATE DEHYDROGENASE: 98.7 u/L
  LIPASE: 8.62 u/L
  PHOSPHORUS: 9.03 mg/dL
  POTASSIUM: 6.36 MEQ/L
  SODIUM: 150.9 MEQ/L
  TOTAL BILIRUBIN: 0.22 mg/dL
